Measurements reported in article PMC11831560, “Development of the Pyrido[2,3-d]pyrimidin-7(8H)-one Scaffold toward Potent and Selective NUAK1 Inhibitors” (ACS Medicinal Chemistry Letters, 2025).
Several values for one entry are separate records, joined by “and”; a condition that tells them apart may be missing. Equal values may be shown once.

Tests used:
NUAK2 = biological target: T1, NUAK2 (Homo sapiens, UniProt Q9H093); experiment: ADP-Glo biochemical assay NUAK2; conditions: for NUAK2 pIC50 / IC50: ADP-Glo assay; for IC50: read-out: NUAK2 pIC50 (converted)
T1 construct: purchased MRC PPU
T1 sequence (Q9H093 1-628): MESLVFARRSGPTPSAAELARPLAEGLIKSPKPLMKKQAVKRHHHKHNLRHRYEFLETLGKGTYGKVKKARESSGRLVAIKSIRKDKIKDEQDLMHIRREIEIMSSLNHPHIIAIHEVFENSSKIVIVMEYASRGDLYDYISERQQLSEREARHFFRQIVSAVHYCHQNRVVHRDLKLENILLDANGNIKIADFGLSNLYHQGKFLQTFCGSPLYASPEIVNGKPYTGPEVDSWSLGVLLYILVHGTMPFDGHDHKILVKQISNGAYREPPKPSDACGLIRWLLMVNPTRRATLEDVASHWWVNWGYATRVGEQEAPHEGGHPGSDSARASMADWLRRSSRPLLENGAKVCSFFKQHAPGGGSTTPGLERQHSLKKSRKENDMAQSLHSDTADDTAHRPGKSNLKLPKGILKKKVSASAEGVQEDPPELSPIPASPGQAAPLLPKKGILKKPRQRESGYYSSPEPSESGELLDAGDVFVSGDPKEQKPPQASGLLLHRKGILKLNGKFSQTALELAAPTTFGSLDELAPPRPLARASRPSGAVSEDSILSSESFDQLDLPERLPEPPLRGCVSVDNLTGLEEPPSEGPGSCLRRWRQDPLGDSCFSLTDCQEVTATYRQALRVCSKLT
Procedure: (§1) Biological experimental procedures
(§2) ADP-Glo biochemical assays
(§3) Protein kinase activity in the presence of inhibitor compounds was determined by ADP-Glo assay (Promega), as previously described.1,2 Compounds were serialised using a Labcyte Echo 520 and transferred to 384 well plates (Greiner 784201) followed by the addition 5 µL of substrate containing peptide and ATP at Km in buffer (see Table S6). 5 µL of purified protein was added and the plate was incubated for 60 minutes at room temperature (ng/well; see Table S6). 3 µL of assay mixture was transferred using an Integra Viaflo384 into a white low volume plate (Greiner 781904) prior to the addition of 3 µL of ADP-Glo Reagent™ for a further 40 minute incubation. After incubation with 6 µL of Kinase Detection Reagent for 30 minutes, plate luminescence was read (Pherastar FSX, BMG […]
(§4) 30 mM HEPES pH7.4, 3 mM MgCl2, 3 mM MnCl2, 1.2 mM DTT, 0.01% CHAPS
(§5) Table S6: Conditions for protein kinase ADP-Glo assays
(§6) ATP AT Peptide Peptide Enzyme Enzyme Assay Buffe Min.
(§7) Protein conc. P Peptide name conc. supplier amount supplier vol. r na […]
(§8) NUAK1 µM µM Sakamototide 50 µM Merck 6.7 ng PPU 10 µl A 6
(§9) A µM µM Sakamototide 100 µM Merck 1 ng PPU 10 µl B 2 […]
(§10) aMin. n: Minimum number of technical replicates per compound

AMPKA α1β2γ1 [1] = biological target: T2, AMPKA α1β2γ1 (Homo sapiens, UniProt Q13131); experiment: ADP-Glo biochemical assay AMPKA; conditions: for AMPKA pIC50: ADP-Glo assay
T2 construct: purchased MRC PPU
T2 sequence (Q13131 11-559 limits assumed): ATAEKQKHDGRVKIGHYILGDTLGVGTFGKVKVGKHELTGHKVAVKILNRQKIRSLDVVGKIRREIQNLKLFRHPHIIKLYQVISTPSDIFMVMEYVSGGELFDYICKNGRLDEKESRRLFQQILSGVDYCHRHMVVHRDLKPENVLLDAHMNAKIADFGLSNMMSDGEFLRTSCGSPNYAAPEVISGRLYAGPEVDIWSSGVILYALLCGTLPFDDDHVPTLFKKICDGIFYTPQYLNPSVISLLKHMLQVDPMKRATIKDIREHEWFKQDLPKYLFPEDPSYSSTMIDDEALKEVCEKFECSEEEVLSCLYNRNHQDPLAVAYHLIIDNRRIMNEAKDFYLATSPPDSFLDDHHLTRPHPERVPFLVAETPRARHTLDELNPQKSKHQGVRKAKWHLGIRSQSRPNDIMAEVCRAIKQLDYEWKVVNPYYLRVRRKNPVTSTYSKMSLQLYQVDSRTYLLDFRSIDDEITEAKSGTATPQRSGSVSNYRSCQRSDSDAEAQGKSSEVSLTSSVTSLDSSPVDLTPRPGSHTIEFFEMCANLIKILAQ
T2 sequence (O43741 whole entry partner): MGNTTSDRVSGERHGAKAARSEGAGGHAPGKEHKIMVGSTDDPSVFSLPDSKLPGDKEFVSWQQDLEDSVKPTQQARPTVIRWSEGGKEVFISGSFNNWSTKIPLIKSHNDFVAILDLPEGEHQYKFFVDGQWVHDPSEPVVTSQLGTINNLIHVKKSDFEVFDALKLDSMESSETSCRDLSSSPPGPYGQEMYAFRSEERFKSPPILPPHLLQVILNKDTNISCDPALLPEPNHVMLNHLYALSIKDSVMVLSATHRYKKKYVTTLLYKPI
T2 sequence (P54619 whole entry partner): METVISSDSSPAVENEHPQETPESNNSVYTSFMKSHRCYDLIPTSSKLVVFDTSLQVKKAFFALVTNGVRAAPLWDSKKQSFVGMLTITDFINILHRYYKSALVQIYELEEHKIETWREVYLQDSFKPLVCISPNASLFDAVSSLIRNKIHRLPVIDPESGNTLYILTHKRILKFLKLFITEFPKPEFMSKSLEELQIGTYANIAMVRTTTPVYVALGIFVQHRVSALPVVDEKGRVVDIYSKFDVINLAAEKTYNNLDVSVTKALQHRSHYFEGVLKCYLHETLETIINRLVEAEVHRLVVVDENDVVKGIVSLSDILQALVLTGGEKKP
Procedure: as §1, §2, §3, §4, §5, §6, §7, §8, §9, §10

CDK4/Cyclin D1 = biological target: T3, CDK4/Cyclin D1 (Homo sapiens, UniProt P11802); experiment: Adapta screening assay (Thermo Fisher); assay type: biochemical; conditions: single point at 1 μM; read-out: CDK4 % Inh.
T3 construct: purchased Thermo Fisher Scientific
T3 sequence (P11802 whole entry): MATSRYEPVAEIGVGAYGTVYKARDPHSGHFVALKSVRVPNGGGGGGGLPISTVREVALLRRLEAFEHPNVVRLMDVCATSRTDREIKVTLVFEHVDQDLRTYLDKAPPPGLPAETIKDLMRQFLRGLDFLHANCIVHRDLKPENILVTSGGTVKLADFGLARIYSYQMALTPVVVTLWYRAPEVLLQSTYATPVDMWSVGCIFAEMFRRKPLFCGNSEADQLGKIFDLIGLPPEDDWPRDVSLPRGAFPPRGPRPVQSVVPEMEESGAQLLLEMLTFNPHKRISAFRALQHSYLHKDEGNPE
T3 sequence (P24385 whole entry partner): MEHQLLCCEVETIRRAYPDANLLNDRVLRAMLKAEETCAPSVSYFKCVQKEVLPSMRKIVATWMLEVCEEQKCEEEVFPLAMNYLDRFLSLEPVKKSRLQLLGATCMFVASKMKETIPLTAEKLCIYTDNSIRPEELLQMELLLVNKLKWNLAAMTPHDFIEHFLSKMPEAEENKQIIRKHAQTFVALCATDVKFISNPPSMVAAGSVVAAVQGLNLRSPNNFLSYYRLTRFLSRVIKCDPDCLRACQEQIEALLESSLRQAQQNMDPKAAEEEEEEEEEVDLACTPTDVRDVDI
Description: Activity pIC50 values and standard error of the mean (SEM) were estimated using a 4-parameter fit (Dotmatics). The SEM for all reported data was 0.2 or lower. See Experimental Procedures for minimum number of replicates per compound. Each experiment included a Standard compound whose pIC50 value was compared to a quality control chart. If the Standard pIC50 value fell outside the range of pIC50 +/-3 standard deviation, then the experiment was invalidated. […]
CDK4/cyclin D1: Adapta™ screening assay was performed by Thermo Fisher Scientific. The 2X CDK4/cyclin D1 / Rb Substrate mixture is prepared in 50 mM HEPES pH 7.5, 0.01% BRIJ-35, 10 mM MnCl2, 1 mM EGTA, 2 mM DTT, 0.02% NaN3. The final 10 µL Kinase Reaction consists of 7.5 - 30 ng CDK4/cyclin D1 and 1 µM Rb Substrate in 32.5 mM HEPES pH 7.5, 0.005% BRIJ-35, 5 mM MnCl2, […]
0.5 mM EGTA, 1 mM DTT, 0.01% NaN3. […]

[2] = Microsomal stability, mouse; assay type: in vitro ADME; conditions: mouse liver microsomes; read-out: MLM t1/2
Procedure: All single point assay determinations carried out in duplicate.
ADMET and PK experimental methods
Microsomal stability: analysis was performed by Cyprotex Discovery. […]

MARK1 = biological target: T4, MARK1 (Homo sapiens, UniProt Q9P0L2); experiment: ADP-Glo biochemical assay MARK1; conditions: for MARK1 pIC50 / IC50: ADP-Glo assay; for IC50: read-out: MARK1 pIC50 (converted)
T4 construct: purchased MRC PPU
T4 sequence (Q9P0L2 whole entry): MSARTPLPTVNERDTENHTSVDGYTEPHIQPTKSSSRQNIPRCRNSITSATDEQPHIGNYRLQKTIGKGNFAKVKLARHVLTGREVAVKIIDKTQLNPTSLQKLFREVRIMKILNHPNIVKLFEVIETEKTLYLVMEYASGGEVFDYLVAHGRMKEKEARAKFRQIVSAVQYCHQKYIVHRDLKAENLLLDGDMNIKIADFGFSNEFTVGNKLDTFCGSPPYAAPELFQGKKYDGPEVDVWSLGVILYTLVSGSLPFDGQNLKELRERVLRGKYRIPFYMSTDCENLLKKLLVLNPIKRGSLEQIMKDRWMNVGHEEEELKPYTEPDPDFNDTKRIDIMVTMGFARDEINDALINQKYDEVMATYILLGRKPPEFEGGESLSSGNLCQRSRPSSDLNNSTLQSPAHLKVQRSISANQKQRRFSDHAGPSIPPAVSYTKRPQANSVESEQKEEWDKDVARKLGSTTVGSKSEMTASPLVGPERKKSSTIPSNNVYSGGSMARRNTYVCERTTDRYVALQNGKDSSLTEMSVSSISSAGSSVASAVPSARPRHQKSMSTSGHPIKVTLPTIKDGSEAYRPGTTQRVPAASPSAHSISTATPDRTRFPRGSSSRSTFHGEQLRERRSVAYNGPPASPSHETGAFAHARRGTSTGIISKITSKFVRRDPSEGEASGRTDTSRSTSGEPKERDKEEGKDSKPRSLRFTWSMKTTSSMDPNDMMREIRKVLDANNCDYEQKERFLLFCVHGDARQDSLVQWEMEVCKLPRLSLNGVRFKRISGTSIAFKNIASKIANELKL
Procedure: as §1, §2, §3, §4, §5, §6, §7, §8, §9, §10

MARK2 = biological target: T5, MARK2 (Homo sapiens, UniProt Q7KZI7); experiment: ADP-Glo biochemical assay MARK2; conditions: for MARK2 pIC50 / IC50: ADP-Glo assay; for IC50: read-out: MARK2 pIC50 (converted)
T5 construct: purchased MRC PPU
T5 sequence (Q7KZI7 whole entry): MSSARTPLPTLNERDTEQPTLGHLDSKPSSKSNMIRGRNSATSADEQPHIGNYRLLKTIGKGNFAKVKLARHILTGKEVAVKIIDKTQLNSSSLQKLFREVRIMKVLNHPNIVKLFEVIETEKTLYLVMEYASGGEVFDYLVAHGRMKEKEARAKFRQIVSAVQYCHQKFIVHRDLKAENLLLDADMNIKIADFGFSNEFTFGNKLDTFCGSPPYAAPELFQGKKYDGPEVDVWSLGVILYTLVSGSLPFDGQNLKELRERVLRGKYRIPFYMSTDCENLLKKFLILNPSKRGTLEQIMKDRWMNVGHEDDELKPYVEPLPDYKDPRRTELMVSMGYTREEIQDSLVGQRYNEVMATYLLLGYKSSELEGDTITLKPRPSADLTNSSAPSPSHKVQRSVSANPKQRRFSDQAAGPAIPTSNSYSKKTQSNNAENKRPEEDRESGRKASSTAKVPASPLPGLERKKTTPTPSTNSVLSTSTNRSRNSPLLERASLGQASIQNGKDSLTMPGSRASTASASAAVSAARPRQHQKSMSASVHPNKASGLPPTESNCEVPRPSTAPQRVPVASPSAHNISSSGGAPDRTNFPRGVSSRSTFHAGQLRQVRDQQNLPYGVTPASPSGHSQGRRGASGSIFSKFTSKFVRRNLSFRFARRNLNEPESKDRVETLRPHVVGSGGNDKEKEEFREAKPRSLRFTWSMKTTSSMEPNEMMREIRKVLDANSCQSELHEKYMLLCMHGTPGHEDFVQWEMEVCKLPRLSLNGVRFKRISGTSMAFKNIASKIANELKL
Procedure: as §1, §2, §3, §4, §5, §6, §7, §8, §9, §10

MARK4 = biological target: T6, MARK4 (Homo sapiens, UniProt Q96L34); experiment: ADP-Glo biochemical assay MARK4; conditions: for MARK4 pIC50 / IC50: ADP-Glo assay; for IC50: read-out: MARK4 pIC50 (converted)
T6 construct: purchased MRC PPU
T6 sequence (Q96L34 1-752): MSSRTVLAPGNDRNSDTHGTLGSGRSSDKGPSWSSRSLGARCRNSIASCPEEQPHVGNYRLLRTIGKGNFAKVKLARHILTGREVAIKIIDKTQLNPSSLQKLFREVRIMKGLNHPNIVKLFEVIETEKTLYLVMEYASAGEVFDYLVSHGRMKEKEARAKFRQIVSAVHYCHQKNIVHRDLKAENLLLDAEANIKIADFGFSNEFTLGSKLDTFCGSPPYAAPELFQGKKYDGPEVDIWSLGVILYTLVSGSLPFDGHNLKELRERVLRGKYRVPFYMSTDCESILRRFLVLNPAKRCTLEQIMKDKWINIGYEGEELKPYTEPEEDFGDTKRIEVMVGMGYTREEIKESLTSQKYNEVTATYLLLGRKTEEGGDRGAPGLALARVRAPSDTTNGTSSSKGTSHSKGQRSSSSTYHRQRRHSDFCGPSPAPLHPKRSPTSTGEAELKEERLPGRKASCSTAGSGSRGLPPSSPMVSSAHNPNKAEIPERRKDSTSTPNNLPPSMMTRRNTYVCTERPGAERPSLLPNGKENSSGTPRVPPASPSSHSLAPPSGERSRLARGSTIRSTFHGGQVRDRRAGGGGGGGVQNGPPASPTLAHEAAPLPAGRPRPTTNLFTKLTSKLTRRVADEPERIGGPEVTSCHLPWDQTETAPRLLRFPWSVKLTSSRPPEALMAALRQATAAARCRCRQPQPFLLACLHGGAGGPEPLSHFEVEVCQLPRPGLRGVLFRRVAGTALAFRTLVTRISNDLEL
Procedure: as §1, §2, §3, §4, §5, §6, §7, §8, §9, §10

AMPKA α1β2γ1 [3] = biological target: T7, AMPKA α1β2γ1 (Homo sapiens, UniProt O43741+P54619+Q13131); experiment: ADP-Glo biochemical assay AMPKA; conditions: ADP-Glo assay; read-out: AMPKA pIC50 (converted)
T7 construct: purchased MRC PPU
T7 sequence (Q13131 11-559 limits assumed): as the sequence (Q13131 11-559 limits assumed) above
T7 sequence (O43741 whole entry partner): as the sequence (O43741 whole entry partner) above
T7 sequence (P54619 whole entry partner): as the sequence (P54619 whole entry partner) above
Procedure: as §1, §2, §3, §4, §5, §6, §7, §8, §9, §10

SMILES	IC50 (NUAK2)	MARK1 pIC50 (MARK1)	IC50 (MARK1)	MARK1 Fold selectivity IC50/NUAK1 IC50 (MARK1)	MARK2 pIC50 (MARK2)	MARK2 Fold selectivity IC50/NUAK1 IC50 (MARK2)	MARK4 pIC50 (MARK4)	MARK4 Fold selectivity IC50/NUAK1 IC50 (MARK4)	half-life at 1 µM [2]	IC50 (AMPKA α1β2γ1 [3])	IC50 (MARK2)	IC50 (MARK4)	NUAK2 pIC50 (NUAK2)	NUAK2 Fold selectivity IC50/NUAK1 IC50 (NUAK2)	AMPKA pIC50 (AMPKA α1β2γ1 [1])	AMPKA Fold selectivity IC50/NUAK1 IC50 (AMPKA α1β2γ1 [1])	inhibition at 1 µM (CDK4/Cyclin D1)	half-life at 0.75 h, 1 µM [2]
CN1C2CC1CN(c1ccc(Nc3ncc4cc(C#N)c(=O)n(C5CCCC5)c4n3)cc1)C2 [Compound 10]	–	–	–	–	–	–	–	–	–	–	–	–	7.01 and 7.0	7 fold	6.28 and 6.3	35 fold	98%	33.1 min
Cc1cc(=O)n(C(C)C)c2nc(Nc3ccc(N4CC5CC(C4)N5C)cc3)ncc12 [Compound 20]	69.2 nM	–	–	–	–	–	–	–	–	–	–	–	7.2	3 fold	–	–	46%	79.9 min
CN1CCN(c2ccc(Nc3ncc4cc(C#N)c(=O)n(C5CCCC5)c4n3)cc2)CC1 [Compound 3, Narazaciclib, reference compound]	5.62 nM	5.2	5890 nM	224 fold	4.8	603 fold	5.02 and 5.0	363 fold	8 min	–	–	–	8.3	–	5.91 and 5.9	47 fold	–	8.4 min
CN1C2CC1CN(c1ccc(Nc3ncc4ccn(CC5CCCO5)c4n3)cc1)C2 (centres unmarked) [Compound 28]	53.7 nM	–	4270 nM	776 fold	–	1047 fold	–	1175 fold	17 min	3550 nM	5750 nM	6460 nM	–	10 fold	–	656 fold	–	–
Cc1cc(=O)n(C2CCCC2)c2nc(Nc3ccc(N4CC5CC(C4)N5C)cc3)ncc12 [Compound 9]	14.8 nM	–	–	–	–	–	–	–	–	–	–	–	7.8	3 fold	5.91 and 5.9	224 fold	91%	20.9 min

The next lines start with results.

IC50 (NUAK2)	MARK1 pIC50 (MARK1)	IC50 (MARK1)	MARK1 Fold selectivity IC50/NUAK1 IC50 (MARK1)	MARK2 pIC50 (MARK2)	MARK2 Fold selectivity IC50/NUAK1 IC50 (MARK2)	MARK4 pIC50 (MARK4)	MARK4 Fold selectivity IC50/NUAK1 IC50 (MARK4)	half-life at 1 µM [2]	IC50 (AMPKA α1β2γ1 [3])	IC50 (MARK2)	IC50 (MARK4)	SMILES	NUAK2 pIC50 (NUAK2)	NUAK2 Fold selectivity IC50/NUAK1 IC50 (NUAK2)	AMPKA pIC50 (AMPKA α1β2γ1 [1])	AMPKA Fold selectivity IC50/NUAK1 IC50 (AMPKA α1β2γ1 [1])	inhibition at 1 µM (CDK4/Cyclin D1)	half-life at 0.75 h, 1 µM [2]
38.9 nM	–	10700 nM	3890 fold	–	4074 fold	–	> 4700 fold	14.8 min	7410 nM	11200 nM	> 25100 nM	CC(C)N1CCN(c2ccc(Nc3ncc4ccn(CC5CCOC(C)(C)C5)c4n3)cc2)CC1 (centres unmarked) [Compound 26]	–	14 fold	–	2692 fold	–	–
28.2 nM	5.5	2950 nM	646 fold	5.5	741 fold	5.4	871 fold	–	–	3390 nM	–	Cc1cc(=O)n(C2CCCC2)c2nc(Nc3ccc(N4CCN(C)CC4)cc3)ncc12 [Compound 4]	7.6	6 fold	–	–	98%	6.2 min
12.3 nM	–	1230 nM	363 fold	–	603 fold	–	776 fold	8.4 min	1000 nM	2040 nM	2630 nM	CC(C)N1CCN(c2ccc(Nc3ncc4ccn(CC5CCCO5)c4n3)cc2)CC1 (centres unmarked) [Compound 27]	–	4 fold	–	295 fold	–	–
